Reference: US10695337B2, “Piperidin-4-yl azetidine derivatives as JAK1 inhibitors” (Incyte Corporation, priority 2010, dated 2020)

These compounds were tested against human JAK1 (a.a. 837-1142) (assay: In vitro JAK kinase assay (HTRF, phosphorylation of a biotinylated peptide), JAK1). Conditions: measured at 1 mM ATP; JAK2 IC50 / JAK1 IC50.
Format: biochemical
Method in brief: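 Phosphorylation of a biotinylated peptide by purified His-tagged JAK catalytic domains (insect-cell baculovirus expression) ran 1 hr at room temperature. After stopping with EDTA, Eu-Py20 and SA-APC were bound for 40 minutes and HTRF measured.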

Structure (SMILES)	IC50 Ratio JAK2/JAK1
CC1CC(N2CC(CC#N)(n3cc(-c4ncnc5[nH]ccc45)cn3)C2)CCN1Cc1c(F)cccc1Cl (stereo not shown) [Example 245, {1-[1-(2-chloro-6-fluorobenzyl)-2-methylpiperidin-4-yl]-3-[4-(7H-pyrrolo[2,3-d]pyrimidin-4-yl)-1H-pyrazol-1-yl]azetidin-3-yl}acetonitrile]	1.5
Cn1nccc1S(=O)(=O)N1CCC(N2CC(CC#N)(n3cc(-c4ncnc5[nH]ccc45)cn3)C2)CC1 [Example 246, {1-{1-[(1-Methyl-1H-pyrazol-5-yl)sulfonyl]piperidin-4-yl}-3-[4-(7H-pyrrolo[2,3-d]pyrimidin-4-yl)-1H-pyrazol-1-yl]azetidin-3-yl}acetonitrile]	7.5
N#CCC1(n2cc(-c3ncnc4[nH]ccc34)cn2)CN(C2CCN(S(=O)(=O)c3ccccc3C#N)CC2)C1 [Example 247, 2-[(4-{3-(cyanomethyl)-3-[4-(7H-pyrrolo[2,3-d]pyrimidin-4-yl)-1H-pyrazol-1-yl]azetidin-1-yl}piperidin-1-yl)sulfonyl]benzonitrile]	5.1
N#CCC1(n2cc(-c3ncnc4[nH]ccc34)cn2)CN(C2CCN(S(=O)(=O)c3cccc(C#N)c3)CC2)C1 [Example 248, 3-[(4-{3-(cyanomethyl)-3-[4-(7H-pyrrolo[2,3-d]pyrimidin-4-yl)-1H-pyrazol-1-yl]azetidin-1-yl}piperidin-1-yl)sulfonyl]benzonitrile]	5.2
N#CCC1(n2cc(-c3ncnc4[nH]ccc34)cn2)CN(C2CCN(S(=O)(=O)c3ccc(C#N)cc3)CC2)C1 [Example 249, 4-[(4-{3-(cyanomethyl)-3-[4-(7H-pyrrolo[2,3-d]pyrimidin-4-yl)-1H-pyrazol-1-yl]azetidin-1-yl}piperidin-1-yl)sulfonyl]benzonitrile]	2.1
CN(C)c1ccc(S(=O)(=O)N2CCC(N3CC(CC#N)(n4cc(-c5ncnc6[nH]ccc56)cn4)C3)CC2)cc1C#N [Example 250, 5-[(4-{3-(cyanomethyl)-3-[4-(7H-pyrrolo[2,3-d]pyrimidin-4-yl)-1H-pyrazol-1-yl]azetidin-1-yl}piperidin-1-yl)sulfonyl]-2-(dimethylamino)benzonitrile]	4.7
Cn1ccc(S(=O)(=O)N2CCC(N3CC(CC#N)(n4cc(-c5ncnc6[nH]ccc56)cn4)C3)CC2)n1 [Example 251, {1-{1-[(1-methyl-1H-pyrazol-3-yl)sulfonyl]piperidin-4-yl}-3-[4-(7H-pyrrolo[2,3-d]pyrimidin-4-yl)-1H-pyrazol-1-yl]azetidin-3-yl}acetonitrile]	4.9
N#CCC1(n2cc(-c3ncnc4[nH]ccc34)cn2)CN(C2CCN(S(=O)(=O)C3CCCC3)CC2)C1 [Example 253, {1-[1-(cyclopentylsulfonyl)piperidin-4-yl]-3-[4-(7H-pyrrolo[2,3-d]pyrimidin-4-yl)-1H-pyrazol-1-yl]azetidin-3-yl}acetonitrile]	5.8
Cn1cnc(S(=O)(=O)N2CCC(N3CC(CC#N)(n4cc(-c5ncnc6[nH]ccc56)cn4)C3)CC2)c1 [Example 258, {1-{1-[(1-methyl-1H-imidazol-4-yl)sulfonyl]piperidin-4-yl}-3-[4-(7H-pyrrolo[2,3-d]pyrimidin-4-yl)-1H-pyrazol-1-yl]azetidin-3-yl}acetonitrile]	5.0
Cc1nc(S(=O)(=O)N2CCC(N3CC(CC#N)(n4cc(-c5ncnc6[nH]ccc56)cn4)C3)CC2)cn1C [Example 259, {1-{1-[(1,2-dimethyl-1H-imidazol-4-yl)sulfonyl]piperidin-4-yl}-3-[4-(7H-pyrrolo[2,3-d]pyrimidin-4-yl)-1H-pyrazol-1-yl]azetidin-3-yl}acetonitrile]	4.6
Cc1noc(C)c1S(=O)(=O)N1CCC(N2CC(CC#N)(n3cc(-c4ncnc5[nH]ccc45)cn3)C2)CC1 [Example 260, {1-{1-[(3,5-dimethylisoxazol-4-yl)sulfonyl]piperidin-4-yl}-3-[4-(7H-pyrrolo[2,3-d]pyrimidin-4-yl)-1H-pyrazol-1-yl]azetidin-3-yl}acetonitrile]	7.1
N#CCC1(n2ccc(-c3ncnc4[nH]ccc34)c2)CN(C2CCN(C(=O)c3cccc(C#N)c3)CC2)C1 [Example 262, 3-[(4-{3-(cyanomethyl)-3-[3-(7H-pyrrolo[2,3-d]pyrimidin-4-yl)-1H-pyrrol-1-yl]azetidin-1-yl}piperidin-1-yl)carbonyl]benzonitrile]	7.4
N#CCC1(n2ccc(-c3ncnc4[nH]ccc34)c2)CN(C2CCN(C(=O)c3ccc(C#N)cc3F)CC2)C1 [Example 264, 4-[(4-{3-(cyanomethyl)-3-[3-(7H-pyrrolo[2,3-d]pyrimidin-4-yl)-1H-pyrrol-1-yl]azetidin-1-yl}piperidin-1-yl)carbonyl]-3-fluorobenzonitrile]	9.5
N#CCC1(n2ccc(-c3ncnc4[nH]ccc34)c2)CN(C2CCN(C(=O)c3c(F)cc(C#N)cc3F)CC2)C1 [Example 265, 4-[(4-{3-(cyanomethyl)-3-[3-(7H-pyrrolo[2,3-d]pyrimidin-4-yl)-1H-pyrrol-1-yl]azetidin-1-yl}piperidin-1-yl)carbonyl]-3,5-difluorobenzonitrile]	6.6
N#CCC1(n2ccc(-c3ncnc4[nH]ccc34)c2)CN(C2CCN(C(=O)c3cc(F)ccc3C(F)(F)F)CC2)C1 [Example 266, {1-{1-[5-fluoro-2-(trifluoromethyl)benzoyl]piperidin-4-yl}-3-[3-(7H-pyrrolo[2,3-d]pyrimidin-4-yl)-1H-pyrrol-1-yl]azetidin-3-yl}acetonitrile]	6.6
N#CCC1(n2ccc(-c3ncnc4[nH]ccc34)c2)CN(C2CCN(C(=O)c3ccc(C(F)(F)F)c(F)c3)CC2)C1 [Example 267, {1-{1-[3-fluoro-4-(trifluoromethyl)benzoyl]piperidin-4-yl}-3-[3-(7H-pyrrolo[2,3-d]pyrimidin-4-yl)-1H-pyrrol-1-yl]azetidin-3-yl}acetonitrile]	6.6
N#CCC1(n2ccc(-c3ncnc4[nH]ccc34)c2)CN(C2CCN(C(=O)c3cccc(C(F)(F)F)c3)CC2)C1 [Example 268, (3-[3-(7H-pyrrolo[2,3-d]pyrimidin-4-yl)-1H-pyrrol-1-yl]-1-{1-[3-(trifluoromethyl)benzoyl]piperidin-4-yl}azetidin-3-yl)acetonitrile]	3.1
N#CCC1(n2ccc(-c3ncnc4[nH]ccc34)c2)CN(C2CCN(C(=O)c3cc(OC(F)(F)F)ccc3F)CC2)C1 [Example 269]	5.0
N#CCC1(n2ccc(-c3ncnc4[nH]ccc34)c2)CN(C2CCN(C(=O)c3c(F)ccc(F)c3F)CC2)C1 [Example 270, {3-[3-(7H-pyrrolo[2,3-d]pyrimidin-4-yl)-1H-pyrrol-1-yl]-1-[1-(2,3,6-trifluorobenzoyl)piperidin-4-yl]azetidin-3-yl}acetonitrile]	6.1
N#CCC1(n2ccc(-c3ncnc4[nH]ccc34)c2)CN(C2CCN(C(=O)c3cccs3)CC2)C1 [Example 271, {3-[3-(7H-pyrrolo[2,3-d]pyrimidin-4-yl)-1H-pyrrol-1-yl]-1-[1-(2-thienylcarbonyl)piperidin-4-yl]azetidin-3-yl}acetonitrile]	7.8
N#CCC1(n2ccc(-c3ncnc4[nH]ccc34)c2)CN(C2CCN(C(=O)c3ccc(C(F)(F)F)cc3F)CC2)C1 [Example 272, {1-{1-[2-fluoro-4-(trifluoromethyl)benzoyl]piperidin-4-yl}-3-[3-(7H-pyrrolo[2,3-d]pyrimidin-4-yl)-1H-pyrrol-1-yl]azetidin-3-yl}acetonitrile]	6.5
N#CCC1(n2ccc(-c3ncnc4[nH]ccc34)c2)CN(C2CCN(C(=O)c3cc(C(F)(F)F)ccc3F)CC2)C1 [Example 273, {1-{1-[2-fluoro-5-(trifluoromethyl)benzoyl]piperidin-4-yl}-3-[3-(7H-pyrrolo[2,3-d]pyrimidin-4-yl)-1H-pyrrol-1-yl]azetidin-3-yl}acetonitrile]	4.4
N#CCC1(n2ccc(-c3ncnc4[nH]ccc34)c2)CN(C2CCN(C(=O)c3cc(F)cc(C(F)(F)F)c3)CC2)C1 [Example 274, {1-{1-[3-fluoro-5-(trifluoromethyl)benzoyl]piperidin-4-yl}-3-[3-(7H-pyrrolo[2,3-d]pyrimidin-4-yl)-1H-pyrrol-1-yl]azetidin-3-yl}acetonitrile]	9.0
N#CCC1(n2ccc(-c3ncnc4[nH]ccc34)c2)CN(C2CCN(C(=O)c3ccc(F)c(C(F)(F)F)c3)CC2)C1 [Example 275, {1-{1-[4-fluoro-3-(trifluoromethyl)benzoyl]piperidin-4-yl}-3-[3-(7H-pyrrolo[2,3-d]pyrimidin-4-yl)-1H-pyrrol-1-yl]azetidin-3-yl}acetonitrile]	3.1
N#CCC1(n2ccc(-c3ncnc4[nH]ccc34)c2)CN(C2CCN(C(=O)c3cccc(F)c3F)CC2)C1 [Example 276, {1-[1-(2,3-difluorobenzoyl)piperidin-4-yl]-3-[3-(7H-pyrrolo[2,3-d]pyrimidin-4-yl)-1H-pyrrol-1-yl]azetidin-3-yl}acetonitrile]	4.0
N#CCC1(n2ccc(-c3ncnc4[nH]ccc34)c2)CN(C2CCN(C(=O)c3ccc(F)c(F)c3)CC2)C1 [Example 277, {1-[1-(3,4-difluorobenzoyl)piperidin-4-yl]-3-[3-(7H-pyrrolo[2,3-d]pyrimidin-4-yl)-1H-pyrrol-1-yl]azetidin-3-yl}acetonitrile]	9.8
N#CCC1(n2ccc(-c3ncnc4[nH]ccc34)c2)CN(C2CCN(C(=O)c3cc(F)ccc3F)CC2)C1 [Example 278, {1-[1-(2,5-difluorobenzoyl)piperidin-4-yl]-3-[3-(7H-pyrrolo[2,3-d]pyrimidin-4-yl)-1H-pyrrol-1-yl]azetidin-3-yl}acetonitrile]	5.6
N#CCC1(n2ccc(-c3ncnc4[nH]ccc34)c2)CN(C2CCN(C(=O)c3c(F)cccc3F)CC2)C1 [Example 279, {1-[1-(2,6-difluorobenzoyl)piperidin-4-yl]-3-[3-(7H-pyrrolo[2,3-d]pyrimidin-4-yl)-1H-pyrrol-1-yl]azetidin-3-yl}acetonitrile]	4.1
